Data reported in patent US20110110886A1, “SMALL MOLECULE INHIBITORS OF AUTOTAXIN AND METHODS OF USE” (Yale University, priority 2008, published 2011).
pKi: −log10 of the molar value. Where two headings read alike, the source gives them in different places.

How the values were obtained:
[1] = molecular target: T1, ATX (recombinant full-length human ATX), lysoPLD activity (Homo sapiens, UniProt Q13822); assay: Steady-state ATX lysoPLD activity with fluorescent LPC analogue FS-3; type: biochemical; settings: for type of inhibition of ATX lysoPLD activity: substrate FS-3; for pKi: substrate FS-3, 37° C.
T1 construct: consistent with a mature, glycosylated form of the enzyme; TEV cleavage site (C); 9-His (C); 6-His (C); made in house; host or cells: High Five insect cells (baculovirus, p-DEST-8)
Protocol: Protein expression and purification: The full length human NPP2 gene (NCBI accession #BC034961) followed by a C-terminal TEV cleavage site and a 9-His and 6-His purification tag was cloned and transferred into a p-DEST-8 baculovirus shuttle vector (Invitrogen), and bacmid DNA was generated by standard methods. […] Three days post infection, the supernatant was adjusted to a final concentration of 50 mM Tris pH 8.0, 5 mM CaCl2, and 1 mM NiSO4 and stirred for 10 min. at room temperature. […] Purified ATX was concentrated to approximately 10 mg mL^−1, and dialyzed into the appropriate assay buffer.
Fluorescence was measured (λex=485 nm, λem=520 nm) on a SpectraMax Gemini XPS at 37° C. under buffer conditions similar to the PDE assays but lacking BSA. […] The spontaneous reaction rates were subtracted from the enzyme catalyzed rates.
The steady-state rates (v) of product formation were obtained by fitting the time courses of absorbance or fluorescence change to linear functions. […] FS-3 hydrolysis product formation was quantitated in arbitrary fluorescence units.
(§1) The Michaelis constants (KM) and the catalytic turnover rate constants (kcat) were obtained by fitting the [substrate]-dependence of v to a rectangular hyperbola in the form of the Briggs-Haldane equation: […]
(§2) in which [S] is [pNP-TMP] or [FS-3]. Inhibitors were treated as reversible inhibitors and analyzed according to the general steady-state linear enzyme inhibitor scheme:
(§3) in which E is ATX, S is pNP-TMP or FS-3 substrate, P are the hydrolysis products, and K1 is the dissociation equilibrium constant for inhibitor binding. The values of α and K1 were obtained by fitting the steady-state rates of product formation (v) to the general inhibition equation: […]
(§4) in which [I] is the inhibitor concentration, kcat is the maximum catalytic turnover rate, and KS is the Michaelis constant of the substrate obtained in the absence of inhibitor.
(§5) The type of inhibition (competitive, noncompetitive, or uncompetitive) depends on the value of α.
(§6) The type of inhibition was assigned if the difference between the r^2 values of the fits to the general inhibition equation (Eq 2) and the specific inhibition (i.e. competitive, noncompetitive or uncompetitive) equations was less than 0.01.

[2] = test system: Human breast adenocarcinoma cells, MDA-MB-231; assay: Matrigel cell invasion assay, breast cancer cells; type: cell-based; settings: 50 nM ATX
Protocol: Cell culture: Human melanoma cells, A2058 (ATCC), were grown in Dulbecco's Modified Eagle's Medium (DMEM) (Gibco), MeI 28 (ATCC), YUSAC2 (Yale University) and MeI-888 (Yale University) were grown in OptiMEM media (Gibco), and HTB 63 (ATCC) were grown in McKoy's 5a medium (ATCC). Human breast adenocarcinoma cells, MDA-MB-231(ATCC) and ovarian carcinoma cells R182 (Gil Mor, Yale University) were grown in RPMI-1640 (Gibco). All cell media was supplemented with 10% (v/v) fetal calf serum (FCS) (Gibco) and 1% (v/v) L-glutamine (Gibco) and grown at 37° C. in a humidified atmosphere containing 5% CO2.
Cell invasion assays: Matrigel matrix (1 mg/ml, Becton Dickenson) was added to […] gelatin-coated membranes placed in cell culture inserts (BD Falcon) and allowed to set for 24 hours at room temperature. The inserts were placed into companion 24 well plates (BD Falcon), and chemo-attractants (ATX ±inhibitors) and/or controls were added to the bottom of the wells. Cells (1×10^6) were added to the inserts and incubated for 3 hours at 37° C. Following incubation, the inserts were removed, fixed in 100% methanol, stained with DiffQuick solution, and mounted on glass slides. Non-invading cells were removed by scraping away the matrigel, and migrating cells were quantitated by counting cell number per high-powered field.

[3] = test system: human melanoma cell line (A2058); assay: Boyden chamber cell migration assay, melanoma cells; type: cell-based; settings: A2058, 50 nM ATX, 4 hours
Protocol: All cell media was supplemented with 10% (v/v) fetal calf serum (FCS) (Gibco) and 1% (v/v) L-glutamine (Gibco) and grown at 37° C. in a humidified atmosphere containing 5% CO2.
The assay chambers are divided by a gelatin-coated membrane with […] pores (NeuroProbe). […] The chambers were then incubated at 37° C. for 4 hours, after which the filters were removed, fixed in 100% methanol, stained with a DiffQuick solution, and mounted onto glass slides. Non-migrating cells were removed from the membrane by scraping the top surface. The cells were quantitated by counting the cell number per high powered field in the various wells. Treatments were compared using a chi squared test.

[4] = molecular target: T2, ATX (recombinant full-length human ATX), PDE activity (Homo sapiens, UniProt Q13822); assay: Steady-state ATX phosphodiesterase (PDE) activity with pNP-TMP, absorbance 405 nm; type: biochemical; settings: substrate pNP-TMP; for pKi: 25° C.
T2 construct: consistent with a mature, glycosylated form of the enzyme; TEV cleavage site (C); 9-His (C); 6-His (C); made in house; host or cells: High Five insect cells (baculovirus, p-DEST-8)
From the text: Protein expression and purification: The full length human NPP2 gene (NCBI accession #BC034961) followed by a C-terminal TEV cleavage site and a 9-His and 6-His purification tag was cloned and transferred into a p-DEST-8 baculovirus shuttle vector (Invitrogen), and bacmid DNA was generated by standard methods. The DNA sequence and correct transposition of the genes was verified by PCR, and recombinant full-length human ATX was expressed in High Five insect cells using standard methods. Three days post infection, the supernatant was adjusted to a final concentration of 50 mM Tris pH 8.0, 5 mM CaCl2, and 1 mM NiSO4 and stirred for 10 min. at room temperature. The resulting precipitant was removed by centrifugation (4,420×g for 30 minutes) and filtration ([…]), and the supernatant was concentrated using a Pall concentration system to approximately 250 mL. The cell media was passed over a nickel affinity column (5 mL, Fastflow resin), equilibrated in binding buffer (20 mM Tris pH 8.0, 300 mM NaCl, 20 mM imidazole, and 20% ethylene glycol) at 4° C., washed with 10 column volumes of binding buffer, and then eluted with binding buffer supplemented with 300 mM imidazole. Purified ATX was concentrated to approximately 10 mg mL^−1, and dialyzed into the appropriate assay buffer.
Steady-state enzyme assays: Phosphodiesterase activity of ATX (75-100 nM) was measured by absorbance (λ=405 nm) on a SpectraMax 250 plate reader at 25° C. with the substrate pNP-TMP [36]. Reactions were run in assay buffer containing 10% DMSO (v/v) and 1 mg mL^−1 BSA (hexachlorophene, merbromin, and bithionol) or without BSA (NSC 48300, 2,2′-Methylenebis(4-chlorophenol), eosin Y, and RJC 03297) in a total volume of […]. The uncatalyzed reaction rate was ≦10^−7 s^−1 (data not shown).
The steady-state rates (v) of product formation were obtained by fitting the time courses of absorbance or fluorescence change to linear functions. Absorbance units were converted to p-nitrophenylate concentration using ε405 of 18.5 mM^−1 cm^−1 [39] and a measured path length of 0.494 cm. FS-3 hydrolysis product formation was quantitated in arbitrary fluorescence units.
as §1, §2, §3, §4, §5, §6

| α value from general steady-state inhibition equation (Eq. 2) [4] | pKi ([4]; read-out: KI (dissociation equilibrium constant for inhibitor binding), ATX PDE activity) | SMILES | type of inhibition of ATX lysoPLD activity [1] | pKi [1] | reduction of ATX-stimulated breast cancer cell invasion [2] | inhibition of ATX-induced stimulation of melanoma cell motility [3] | type of inhibition of ATX PDE activity [4] | pKi ([4]; competitive inhibition equation (Eq. 3), read-out: KI, ATX PDE activity) |
| --- | --- | --- | --- | --- | --- | --- | --- | --- |
| 3.0 (±2.3) | 4.22 | Oc1c(Cl)cc(Cl)cc1Sc1cc(Cl)cc(Cl)c1O [Bithionol] | competitively inhibits | 4.18 | could be reduced | inhibited in a dose-dependent manner | mixed, noncompetitive inhibition mechanism | – |
| – | – | O=[As](O)(O)c1ccc(Cc2ccc([As](=O)(O)O)cc2)cc1 [NSC 48300] | competitively inhibits | 6.62 | could be reduced | inhibited in a dose-dependent manner | competitive inhibition | 7.32 |
